From patent US12545895B2, “Protection of beta cells from immune attack” (Joslin Diabetes Center, priority 2017, dated 2026)

Experiments:
NIT-1 cells [1] = assay: CRISPR/Cas9 whole-genome loss-of-function (LOF) screen: GeCKO library-A infected NIT-1 cells transplanted into NOD.scid mouse with diabetic NOD splenocytes, gRNA sequencing of surviving graft; format: in vivo; settings: surviving NIT-1 graft of one NOD.scid mouse, ~60 days, severely hyperglycemic; mini-seq
Text: A series of tools to run a CRISPR/Cas9 mediated whole-genome loss-of-function (LOF) screen were developed. The GeCKO V2 lentiviral pooled library was used that comprises guide RNAs (gRNAs) against every gene (Addgene, targeting >20,000 genes with 6 gRNAs/gene). This library was split into two sub-libraries (A and B), which each cover all targeted genes with 3 gRNAs/gene. These libraries cover the entire coding genome to potentially mutate every gene and also contain >1000 non-targeting gRNAs as internal negative controls. In the GeCKO library, Cas9 and gRNAs were incorporated into a single lentiviral vector to introduce these gene-targeting elements into beta cells by lentiviral infection.
A high-stringency LOF screen was done using a single mouse. In this model, 10^7 GeCKO library-A infected NIT-1 cells (multiplicity of infection (MOI)=0.3) were injected subcutaneously, and 10^7 diabetic NOD splenocytes were injected intravenously at the same time.
For sequencing, genomic DNA from explanted grafts was extracted with genome DNA midi prep kits, and the gRNA region was amplified from genomic DNA using established protocols.
Selection pressure (i.e., autoimmune attack) on transplanted NIT-1 cells was maximized by waiting until NOD.scid mice had become severely hyperglycemic (˜60 days, marked by the arrow) as shown in FIG. 4. Even after the blood glucose of one recipient NOD.scid mouse had reached approximately 500 mg/dL, approximately 50,000 cells from the remaining graft could be isolated. gRNAs were amplified from the genome DNA of the graft and surveyed by mini-seq (low-depth sequencing).
Since the GeCKO library (A library) only contain approximately 60,000 unique gRNAs, 10^6-10^7 sequencing reads was sufficient to cover the whole library and to achieve statistical significance. Typically, one high throughput sequencing reaction using the second generation Illumina system (e.g. NextSeq 500) can yield ˜150 millions of sequence reads, so multiple samples from different grafts were barcoded, mixed and sequenced together, thus greatly reducing sequencing costs.
The sequencing data was de-barcoded and then analyzed by bioinformatics analysis. Established analysis tools such as HiTSelect or MAGeCK were used for gRNA enrichment analysis. In sum, the ability to amplify, sequence and sub-clone gRNAs after in vivo selection allowed identification of genes whose suppression improved beta cell survival.
As expected with the high stringency selection, only 13 unique gRNAs that target 12 genes out of >60,000 gRNAs present in pre-implantation cells were identified. The number of times the gRNA was present in sequence (count), the frequency of the gRNA in the total reads, and the gene targeted by the gRNA are shown in Table 2. Two different gRNAs targeting Menl were found in the screen. The target genes in Table 2 encode for mouse SEQ ID Nos: 11-22 in Table 1, and the known human equivalents of these gene products are SEQ ID Nos: 1-10 in Table 1.

NIT-1 beta cells = assay: Thapsigargin-induced ER stress, cell viability by MTT assay; format: cell-based, mouse; settings: control NIT-1 cells, thapsigargin at different dosages, 3 days
Text: NIT-1 beta cells were genetically modified at two genes—1) Rnls; and 2) Zbed3 with CRISPR/Cas9 and guide RNAs (gRNAs) targeting Rnls and Zbed3, respectively. The modified NIT-1 cells had reduced expression of renalase (Rnls mutants) or zinc finger BED domain-containing protein 3 (Zbed3 mutants). ER stress was induced by thapsigargin, which blocks the sarco/endoplasmic reticulum Ca^2+-ATPase (SERCA) pump on the ER, thus depleting calcium from the ER and leading to misfolding of proteins in ER and eventually ER stress induced cell death. All cells were treated with thapsigargin for 3 days, and cell viability was evaluated by a standard MTT assay (see Mosmann T, J Immunol Methods 65(1-2):55-63 (1983)). […] Thus, inhibiting expression of the Rnls or Zbed3 protected beta cells from cell death induced by ER stress. See FIG. 8 (Rnls) and FIG. 9 (Zbed3).

NIT-1 cells [2] = assay: Co-culture of NIT-1 cells with NOD splenocytes, active caspase 3 staining; format: cell-based, mouse; settings: 24 hours, 50 splenocytes:1 NIT-1 cell, NIT-1 lines stably expressing gRNA, FIG. 7
Description: FIGS. 6A-6C show are in vitro co-culture system for studying NIT-1 cell death by NOD splenocytes. […] The ratios represent ratios of splenocytes to NIT-1 cells. For example, 50:1 indicates 50-times more splenocytes than NIT-1 cells, while 0:1 indicates NIT-1 cells cultured without splenocytes. P<0.0001=****.
NIT-1 cells were incubated for 24 hours with splenocytes at a ratio of 50 splenocytes:1 NIT-1 cell. P<0.05=*; P<0.01=**, and P<0.001=***.
There is little cell death over 24 hours of NIT-1 cells not co-cultured with NOD splenocytes (0:1 ratio of splenocytes to NIT-1 cells in FIG. 6B), as evidenced by weak staining of active caspase-3. In contrast, NIT-1 cells co-cultured with a high ratio of NOD splenocytes (50:1 ratio of splenocytes to NIT-1 cells in FIG. 6B) show high cell death, as evidenced by strong caspase-3 activity. […] This model can be used to study whether inhibiting or suppressing expression of target genes blocks or inhibits the ability of NOD splenocytes to mediate NIT-1 cell death over time.

Molecule | Count (number of times the gRNA was present in sequence) (NIT-1 cells [1]) | Frequency (% of total reads) (NIT-1 cells [1]) | beta cell death (cell viability, MTT) (NIT-1 beta cells) | NIT-1 cell death mediated by NOD splenocytes (activated caspase 3) (NIT-1 cells [2])
SEQ ID No: 26: gRNA targeting mouse Lgsn, sequence TGCAACCGCGAACCCTTACC (listed as DNA, chemistry not fully specified) | 3252 | 10.80 % of total reads | – | –
SEQ ID No: 32: gRNA targeting mouse Zbed3, sequence GCGCGAGGCGGCCCTAATGC (listed as DNA, chemistry not fully specified) | 1160 | 3.85 % of total reads | – | –
SEQ ID No: 24: gRNA targeting mouse Hivep2, sequence TACGCACTCATACTGATGTT (listed as DNA, chemistry not fully specified) | 4073 | 13.53 % of total reads | – | –
SEQ ID No: 35: gRNA targeting mouse Grm2, sequence GCGGCATAACGCCACACCCG (listed as DNA, chemistry not fully specified) | 131 | 0.44 % of total reads | – | –
SEQ ID No: 27: gRNA targeting mouse GCN1 (Gcn1l1), sequence GCTTGACACTGCATCGATAT (listed as DNA, chemistry not fully specified) | 3228 | 10.72 % of total reads | – | –
C/C=C(/C)C(=O)O[C@H]1C(C)=C2[C@H]([C@@H]1OC(=O)CCCCCCC)[C@@](C)(OC(C)=O)C[C@H](OC(=O)CCC)[C@@]1(O)[C@H]2OC(=O)[C@@]1(C)O [thapsigargin] | – | – | induced beta cell death | –
SEQ ID No: 23: gRNA targeting mouse Men1, sequence CACGCCCGAGCTGTCCAGTT (listed as DNA, chemistry not fully specified) | 4919 | 16.34 % of total reads | – | significantly decreased
SEQ ID No: 28: gRNA targeting mouse Gm3604, sequence ACTTTCGTATACAGATACTG (listed as DNA, chemistry not fully specified) | 3226 | 10.72 % of total reads | – | –
SEQ ID No: 29: gRNA targeting mouse Plin4, sequence CTGCCTCCTTAGTTCCGACA (listed as DNA, chemistry not fully specified) | 2529 | 8.40 % of total reads | – | –
SEQ ID No: 33: second gRNA targeting mouse Men1, sequence GCTGTATGACCTCGGACATC (listed as DNA, chemistry not fully specified) | 702 | 2.33 % of total reads | – | significantly decreased
SEQ ID No: 30: gRNA targeting mouse Med11, sequence TTTCACGCTCGATATCCTCC (listed as DNA, chemistry not fully specified) | 1346 | 4.47 % of total reads | – | –
SEQ ID No: 34: gRNA targeting mouse Olfr911-ps1, sequence CTTCAAATGAGATCCACTGC (listed as DNA, chemistry not fully specified) | 503 | 1.67 % of total reads | – | –
SEQ ID No: 31: gRNA targeting mouse Tgm6, sequence CATCGGTGGCTGGGTCCTCC (listed as DNA, chemistry not fully specified) | 1225 | 4.07 % of total reads | – | –
SEQ ID No: 25: gRNA targeting mouse Rnls, sequence CTACTCCTCTCGCTATGCTC (listed as DNA, chemistry not fully specified) | 3810 | 12.66 % of total reads | – | –
